Values quoted from earlier work in patent US7696365B2 (Chugai Seiyaku Kabushiki Kaisha, priority 2003, dated 2010).

Assays:
[1] = tested on: human breast cancer cells
[2] = tested on: muscle (M) isoform of CPT-I; settings: read-out: IC50 of malonyl-CoA inhibition, muscle isoform

SMILES: CCCCCCCCCCCCCCOc1ccc(C(=O)O)o1 [TOFA, 5-(tetradecyloxy)-2-furoic acid]
- malonyl-CoA level ([1]; breast carcinoma cells): 60 % of the control
- antitumor activity ([1]; human breast cancer cells and xenografts): does not show any antitumor activity

SMILES: CC(C)(COP(=O)(O)OP(=O)(O)OC[C@H]1O[C@@H](n2cnc3c(N)ncnc32)[C@H](O)[C@@H]1OP(=O)(O)O)[C@@H](O)C(=O)NCCC(=O)NCCSC(=O)CC(=O)O [malonyl-CoA, Malonyl-CoA]
- IC50 [2]: 30 nM
